Test results from US10010547B2 (CASCADIAN THERAPEUTICS, INC., priority 2014, dated 2018).
Structures can show the parent of a compound that is named as a salt. Where two headings read alike, the source gives them in different places.

Tests used:
[1] = molecular target: Chk-1 kinase (Homo sapiens (Human), UniProt O14757); experiment: Chk-1 Kinase Inhibiting Activity (33P-ATP filter assay, CHKtide substrate); assay type: biochemical; settings: against Chk-1 kinase; read-out: IC50
Method in brief: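 Full-length N-terminal GST-tagged human Chk-1 from insect cells, 0.5 nM final, with 20 μM peptide substrate and 33P-ATP in HEPES pH 7.5 buffer with 1% DMSO. Reaction ran 120 minutes at room temperature; incorporated radioactivity captured on P81 filters and counted for IC50.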

[2] = system: MIA PaCa-2 cells; experiment: Gemcitabine Combination Cell Assay (Cell Titer Glo); assay type: cell-based; settings: for IC50: Homo sapiens; for 10xLS: approximate concentration of Chk1 inhibitor that results in a 10-fold reduction in the IC50 of gemcitabine alone; for 2xLS: approximate concentration of Chk1 inhibitor that results in a two-fold reduction in the IC50 of gemcitabine alone
Method in brief: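 MIA PaCa-2 cells were treated 72 h with half-log dilutions of Chk1 inhibitor (top 3000 nM) and gemcitabine (top 100 nM), alone and in full matrix; viability by CellTiter-Glo luminescence. IC50s from four-parameter fit; Chk1 inhibitor concentrations giving two- and ten-fold lowering of gemcitabine IC50 were estimated.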

[3] = Chk1 inhibitor alone, MIA PaCa-2 cells, 72 h, read-out: Chk1 IC50
[4] = MIA PaCa-2, 72 h, read-out: Chk1 IC50 (nM)

Chain of Chk-1 kinase (O14757 whole entry): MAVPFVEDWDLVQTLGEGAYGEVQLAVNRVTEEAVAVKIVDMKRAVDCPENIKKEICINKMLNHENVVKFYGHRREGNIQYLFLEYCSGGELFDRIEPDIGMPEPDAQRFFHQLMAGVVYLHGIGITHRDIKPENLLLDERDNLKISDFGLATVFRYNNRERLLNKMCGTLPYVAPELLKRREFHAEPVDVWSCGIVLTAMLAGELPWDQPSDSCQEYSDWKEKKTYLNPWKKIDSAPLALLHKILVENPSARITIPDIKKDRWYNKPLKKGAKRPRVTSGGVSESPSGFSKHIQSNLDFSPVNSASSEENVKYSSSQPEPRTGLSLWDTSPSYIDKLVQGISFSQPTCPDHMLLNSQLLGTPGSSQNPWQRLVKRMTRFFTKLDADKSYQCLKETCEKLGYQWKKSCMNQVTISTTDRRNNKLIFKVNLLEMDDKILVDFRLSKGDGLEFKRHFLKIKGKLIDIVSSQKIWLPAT

Row | SMILES | IC50 [1] [nM] | IC50 [2, 3] [nM] | 10xLS ([2]; MIA PaCa-2 cells, 72 h) [nM] | 2xLS ([2]; MIA PaCa-2 cells, 72 h) [nM] | IC50 [2, 4] [nM]
1 | COc1cc(C2CCNCC2)ccc1-c1cc(Nc2ccc(C#N)c(F)c2)n[nH]1 [Example 49, 2-fluoro-4-[[5-[2-methoxy-4-(4-piperidyl)phenyl]-1H-pyrazol-3-yl]amino]benzonitrile] | 36 | 3570 | <3000 | 1000 | –
2 | COC(=O)c1cnc(Nc2cc(-c3ccc(C4CCNCC4)cc3OC)[nH]n2)cn1 [Example 71, methyl 5-[[5-[2-methoxy-4-(4-piperidyl)phenyl]-1H-pyrazol-3-yl]amino]pyrazine-2-carboxylate] | > 100 | > 3000 | >3000 | >3000 | –
3 | COc1cc(OC[C@@H]2CCCN2C)ccc1-c1cc(Nc2cnc(C#N)cn2)n[nH]1 [Example 104, 5-[[5-[2-methoxy-4-[[(2S)-1-methylpyrrolidin-2-yl]methoxy]phenyl]-1H-pyrazol-3-yl]amino]pyrazine-2-carbonitrile hydrochloride] | 0.12 | – | 100 | 3 | 214
4 | COc1cc(C2CCN(C)CC2)c(F)cc1-c1cc(Nc2cnc(C#N)cn2)n[nH]1 [Example 32, 5-[[5-[5-fluoro-2-methoxy-4-(1-methyl-4-piperidyl)phenyl]-1H-pyrazol-3-yl]amino]pyrazine-2-carbonitrile] | 0.26 | 784 | 300 | 30 | –
5 | COc1cc(N2CCCNCC2)ccc1-c1cc(Nc2cnc(C#N)cn2)n[nH]1 [Example 54, 5-[[5-[4-(1,4-diazepan-1-yl)-2-methoxy-phenyl]-1H-pyrazol-3-yl]amino]pyrazine-2-carbonitrile] | 0.12 | 137 | 30 | <3 | –
6 | CC(C)Oc1cc(C2CCNCC2)ccc1-c1cc(Nc2cnc(C#N)cn2)n[nH]1 [Example 53, 5-[[5-[2-isopropoxy-4-(4-piperidyl)phenyl]-1H-pyrazol-3-yl]amino]pyrazine-2-carbonitrile] | 3.1 | 2300 | 1000 | 100 | –
7 | COc1cc(N2CCN(CC(C)C)CC2)ccc1-c1cc(Nc2cnc(C#N)cn2)n[nH]1 [Example 142, 5-[[5-[4-(4-isobutylpiperazin-1-yl)-2-methoxy-phenyl]-1H-pyrazol-3-yl]amino]pyrazine-2-carbonitrile] | 0.082 | 306 | 100 | 3 | –
8 | COc1cc(N2CCNCC2)cc(F)c1-c1cc(Nc2cnc(C#N)cn2)n[nH]1 [Example 116, 5-[[5-(2-fluoro-6-methoxy-4-piperazin-1-yl-phenyl)-1H-pyrazol-3-yl]amino]pyrazine-2-carbonitrile] | 0.077 | 209 | 100 | 3 | –
9 | COc1cc(CNCC(C)C)ccc1-c1cc(Nc2cnc(C#N)cn2)n[nH]1 [Example 146, 5-[[5-[4-[(isobutylamino)methyl]-2-methoxy-phenyl]-1H-pyrazol-3-yl]amino]pyrazine-2-carbonitrile] | 0.012 | 433 | 100 | 3 | –
10 | COc1cc(C2C[C@H](C)N[C@@H](C)C2)ccc1-c1cc(Nc2cnc(C#N)cn2)n[nH]1 (stereo partly drawn) [Example 47, 5-[[5-[4-[(2S,6S)-2,6-dimethyl-4-piperidyl]-2-methoxy-phenyl]-1H-pyrazol-3-yl]amino]pyrazine-2-carbonitrile] | 0.23 | 235 | 100 | 3 | –
11 | COc1cc(C2CCN(C)CC2)ccc1-c1cc(Nc2ccc(C#N)nc2)n[nH]1.Cl [Example 24, 5-[[5-[2-methoxy-4-(1-methyl-4-piperidyl)phenyl]-1H-pyrazol-3-yl]amino]pyridine-2-carbonitrile hydrochloride] | 0.24 | 934 | 300 | 10 | –
12 | COc1cc(NCC2CCN(C)CC2)ccc1-c1cc(Nc2cnc(C#N)cn2)n[nH]1 [Example 107, 5-[[5-[2-Methoxy-4-[(1-methyl-4-piperidyl)methylamino]phenyl]-1H-pyrazol-3-yl]amino]pyrazine-2-carbonitrile hydrochloride] | 0.081 | – | 100 | 3 | 160
13 | COc1cc(C2CCN(CCF)CC2)ccc1-c1cc(Nc2cnc(C#N)cn2)n[nH]1 [Example 106, 5-[[5-[4-[1-(2-fluoroethyl)-4-piperidyl]-2-methoxy-phenyl]-1H-pyrazol-3-yl]amino]pyrazine-2-carbonitrile] | 0.17 | 441 | 100 | 3 | –
14 | COc1cc(CC2CCN(C(C)C)CC2)ccc1-c1cc(Nc2cnc(C#N)cn2)n[nH]1 [Example 144, 5-[[5-[4-[(1-isopropyl-4-piperidyl)methyl]-2-methoxy-phenyl]-1H-pyrazol-3-yl]amino]pyrazine-2-carbonitrile] | 0.026 | 829 | <300 | 10 | –
15 | COc1cc([C@@H]2CN(C(C)C)CCO2)ccc1-c1cc(Nc2cnc(C#N)cn2)n[nH]1 [Example 147, 5-[[5-[4-[(2R)-4-isopropylmorpholin-2-yl]-2-methoxy-phenyl]-1H-pyrazol-3-yl]amino]pyrazine-2-carbonitrile] | 0.16 | 1200 | 300 | 10 | –
16 | COc1cc(C2CCCN(C)C2)ccc1-c1cc(Nc2cnc(C#N)cn2)n[nH]1 (stereo not shown) [Example 40, 5-[[5-[2-methoxy-4-(1-methyl-3-piperidyl)phenyl]-1H-pyrazol-3-yl]amino]pyrazine-2-carbonitrile] | 0.14 | 188 | 30 | <3 | –
17 | CCN1CCC(c2ccc(-c3cc(Nc4cnc(C#N)cn4)n[nH]3)c(OC)c2)C(F)C1 (stereo not shown) [Example 87, 5-[[5-[4-(1-ethyl-3-fluoro-4-piperidyl)-2-methoxy-phenyl]-1H-pyrazol-3-yl]amino]pyrazine-2-carbonitrile hydrochloride] | 0.059 | – | 300 | 10 | 540
18 | COc1cc(C2(F)CCN(C)CC2)ccc1-c1cc(Nc2cnc(C#N)cn2)n[nH]1 [Example 64, 5-[[5-[4-(4-Fluoro-1-methyl-4-piperidyl)-2-methoxy-phenyl]-1H-pyrazol-3-yl]amino]pyrazine-2-carbonitrile hydrochloride] | 0.15 | – | 100 | 3 | 144
19 | COc1cc(C2CCN(CC(N)=O)CC2)ccc1-c1cc(Nc2cnc(C#N)cn2)n[nH]1 [Example 62, 2-[4-[4-[3-[(5-cyanopyrazin-2-yl)amino]-1H-pyrazol-5-yl]-3-methoxy-phenyl]-1-piperidyl]acetamide] | 0.084 | 875 | 300 | 10 | –
20 | COc1cc(CN2CCOCC2)ccc1-c1cc(Nc2cnc(C#N)cn2)n[nH]1 [Example 102, 5-[[5-[2-methoxy-4-(morpholinomethyl)phenyl]-1H-pyrazol-3-yl]amino]pyrazine-2-carbonitrile] | 0.16 | 957 | 300 | 10 | –
21 | COc1cc(O[C@H]2CCNC2)ccc1-c1cc(Nc2cnc(C#N)cn2)n[nH]1 [Example 33, 5-[[5-[2-methoxy-4-[(3S)-pyrrolidin-3-yl]oxy-phenyl]-1H-pyrazol-3-yl]amino]pyrazine-2-carbonitrile] | 0.074 | 62 | <30 | <3 | –
22 | COc1cc(CNCCN2CCOCC2)ccc1-c1cc(Nc2cnccn2)n[nH]1 [Example 10, (5-{2-methoxy-4-[(2-morpholin-4-yl-ethylamino)-methyl]-phenyl}-1H-pyrazol-3-yl)-pyrazin-2-yl-amine] | 11 | > 3000 | >3000 | 1000 | –
